Key:
[1] = test system: Geobacillus stearothermophilus spores; experiment: Resistance of self-contained biological indicators to hydrogen peroxide sterilization, growth readout by pH colour change (GRO+); format: cell-based; settings: Table 5, modulator 0.8 weight percent in spore coating solution, H2O2 exposure 7 min.
Procedure: (§1) PET film (.09 mm thick) was coated with colloidal silica as described in International Publication No. WO2014/189716, which is incorporated herein by reference in its entirety. […] Separate aqueous spore coating solutions were prepared as described in Example 1 with the amino acids shown in table 4 present in the coating solutions. Two microliter aliquots (containing at least 10^6 spores) of the respective spore coating solutions were deposited onto the silica-coated PET film, forming a series of spaced-apart spots on the film. The spore coated films were dried in a 60° C. incubator for 12 minutes. Circular discs (hereinafter, “coated carriers”) of the PET film, each disc including one of the dried spots, were punched out and were used to assemble self-contained biological indicators (BI) similar to that shown in FIG. 1 of International Publication No. WO2014/189716. The coated carriers described above were placed into the “spore carrier 135” shown in FIG. 1 of International Publication No. WO2014/189716. Each self-contained BI comprised a polycarbonate outer container, a breaker, a cap, and a cap filter. Disposed inside the outer container were a coated carrier along with an ampoule media containing the nutrient medium from 3M ATTEST 1292 Rapid Readout Biological Indicators plus 5g/L methionine (as described in Example 1).
(§2) The self-contained biological indicators with different concentrations of additives (Table 4) were exposed to hydrogen peroxide sterilization in STERRAD NX sterilizer. The sterilization processes were run by manually injecting 1.0 ml of 59% hydrogen peroxide per load, unless specified otherwise. The exposure time was varied to determine the resistance profile of self-contained BIs with different additive formulations. The BIs were activated by pressing down the cap to break the media ampoule. The activated BIs were placed in a bench-top fluorimeter (3M Company, St. Paul, Minn.) to detect fluorescence.
(§3) A self-contained BI that is not completely inactivated (i.e., not all of the spores are killed by the sterilization process) will resume cellular functions upon activation of the BI. The production of glucosidase enzyme by surviving spores is an indication that at least one of the spores have not been inactivated (killed) by the sterilization process. The glucosidase enzyme cleaves the 4-methylumbelliferyl-glucoside (MUG) releasing the fluorescent methyl umbelliferone, which is detected using a bench-top fluorimeter. Growth and proliferation of spores in the self-contained biological indicator can also be detected by a pH change, which may be detected by a color change of the pH indicator in the growth medium.
(§4) Self-contained biological indicators were prepared (with various additives listed in table 4) as described above in this Example. For each additive tested, a lower range and a higher range was used as a preliminary screen to identify additives modulated the resistance of the spores to the sterilant. Five self-contained BIs representing each condition were exposed to hydrogen peroxide sterilization in STERRAD NX sterilizer. The sterilization processes used a constant injection volume (1.0 ml of 59% hydrogen peroxide) and various times (e.g., 20 seconds to 7 minutes) of exposure to the hydrogen peroxide. The self-contained BIs were activated after exposure to the sterilization process and were monitored for fluorescence using a bench-top fluorimeter) and pH based color change (visually). […]
(§5) Self-contained biological indicators (with various additives listed in table 5) were prepared as described in Example 2. The self-contained biological indicators were exposed to hydrogen peroxide in a STERRAD NX sterilizer as described in Example 2. The self-contained BIs were activated after exposure to the sterilization process and were monitored for fluorescence using a bench-top fluorimeter and pH based color change (visually).

[2] = test system: Geobacillus stearothermophilus spores; experiment: Resistance of self-contained biological indicators to hydrogen peroxide sterilization, glucosidase enzyme activity fluorescence readout (ENZ+); format: cell-based
Procedure: as §1, §2, §3, §4, §5

N=C(N)NCCC[C@H](N)C(=O)O [L-arginine]
percentage of self-contained biological indicators positive for growth (GRO+) [1]: 0% | percentage of self-contained biological indicators positive for glucosidase enzyme activity (ENZ+) ([2]; Table 4, modulator 0.01 weight percent in spore coating solution, H2O2 exposure 30 sec.): 80% | percentage of self-contained biological indicators positive for glucosidase enzyme activity (ENZ+) ([2]; Table 4, modulator 0.01 weight percent in spore coating solution, H2O2 exposure 60 sec.): 60% | percentage of self-contained biological indicators positive for glucosidase enzyme activity (ENZ+) ([2]; Table 4, modulator 0.01 weight percent in spore coating solution, H2O2 exposure 90 sec.): 0% | percentage of self-contained biological indicators positive for glucosidase enzyme activity (ENZ+) ([2]; Table 4, modulator 0.01 weight percent in spore coating solution, H2O2 exposure 3 min.): 0% | percentage of self-contained biological indicators positive for glucosidase enzyme activity (ENZ+) ([2]; Table 4, modulator 0.01 weight percent in spore coating solution, H2O2 exposure 7 min.): 0% | percentage of self-contained biological indicators positive for glucosidase enzyme activity (ENZ+) ([2]; Table 4, modulator 0.1 weight percent in spore coating solution, H2O2 exposure 30 sec.): 80% | percentage of self-contained biological indicators positive for glucosidase enzyme activity (ENZ+) ([2]; Table 4, modulator 0.1 weight percent in spore coating solution, H2O2 exposure 60 sec.): 0% | percentage of self-contained biological indicators positive for glucosidase enzyme activity (ENZ+) ([2]; Table 4, modulator 0.1 weight percent in spore coating solution, H2O2 exposure 90 sec.): 0% | percentage of self-contained biological indicators positive for glucosidase enzyme activity (ENZ+) ([2]; Table 4, modulator 0.1 weight percent in spore coating solution, H2O2 exposure 3 min.): 0% | percentage of self-contained biological indicators positive for glucosidase enzyme activity (ENZ+) ([2]; Table 4, modulator 0.1 weight percent in spore coating solution, H2O2 exposure 7 min.): 0% | percentage of self-contained biological indicators positive for glucosidase enzyme activity (ENZ+) ([2]; Table 5, modulator 0.05 weight percent in spore coating solution, H2O2 exposure 20 sec.): 100% | percentage of self-contained biological indicators positive for glucosidase enzyme activity (ENZ+) ([2]; Table 5, modulator 0.05 weight percent in spore coating solution, H2O2 exposure 30 sec.): 100% | percentage of self-contained biological indicators positive for glucosidase enzyme activity (ENZ+) ([2]; Table 5, modulator 0.05 weight percent in spore coating solution, H2O2 exposure 60 sec.): 67% | percentage of self-contained biological indicators positive for glucosidase enzyme activity (ENZ+) ([2]; Table 5, modulator 0.05 weight percent in spore coating solution, H2O2 exposure 90 sec.): 0% | percentage of self-contained biological indicators positive for glucosidase enzyme activity (ENZ+) ([2]; Table 5, modulator 0.05 weight percent in spore coating solution, H2O2 exposure 3 min.): 0% | percentage of self-contained biological indicators positive for glucosidase enzyme activity (ENZ+) ([2]; Table 5, modulator 0.05 weight percent in spore coating solution, H2O2 exposure 7 min.): 0% | percentage of self-contained biological indicators positive for glucosidase enzyme activity (ENZ+) ([2]; Table 5, modulator 0.1 weight percent in spore coating solution, H2O2 exposure 20 sec.): 100% | percentage of self-contained biological indicators positive for glucosidase enzyme activity (ENZ+) ([2]; Table 5, modulator 0.1 weight percent in spore coating solution, H2O2 exposure 30 sec.): 100% | percentage of self-contained biological indicators positive for glucosidase enzyme activity (ENZ+) ([2]; Table 5, modulator 0.1 weight percent in spore coating solution, H2O2 exposure 60 sec.): 33% | percentage of self-contained biological indicators positive for glucosidase enzyme activity (ENZ+) ([2]; Table 5, modulator 0.1 weight percent in spore coating solution, H2O2 exposure 90 sec.): 0% | percentage of self-contained biological indicators positive for glucosidase enzyme activity (ENZ+) ([2]; Table 5, modulator 0.1 weight percent in spore coating solution, H2O2 exposure 3 min.): 0% | percentage of self-contained biological indicators positive for glucosidase enzyme activity (ENZ+) ([2]; Table 5, modulator 0.1 weight percent in spore coating solution, H2O2 exposure 7 min.): 0% | percentage of self-contained biological indicators positive for glucosidase enzyme activity (ENZ+) ([2]; Table 5, modulator 0.2 weight percent in spore coating solution, H2O2 exposure 20 sec.): 100% | percentage of self-contained biological indicators positive for glucosidase enzyme activity (ENZ+) ([2]; Table 5, modulator 0.2 weight percent in spore coating solution, H2O2 exposure 30 sec.): 100% | percentage of self-contained biological indicators positive for glucosidase enzyme activity (ENZ+) ([2]; Table 5, modulator 0.2 weight percent in spore coating solution, H2O2 exposure 60 sec.): 33% | percentage of self-contained biological indicators positive for glucosidase enzyme activity (ENZ+) ([2]; Table 5, modulator 0.2 weight percent in spore coating solution, H2O2 exposure 90 sec.): 0% | percentage of self-contained biological indicators positive for glucosidase enzyme activity (ENZ+) ([2]; Table 5, modulator 0.2 weight percent in spore coating solution, H2O2 exposure 3 min.): 0% | percentage of self-contained biological indicators positive for glucosidase enzyme activity (ENZ+) ([2]; Table 5, modulator 0.2 weight percent in spore coating solution, H2O2 exposure 7 min.): 0% | percentage of self-contained biological indicators positive for glucosidase enzyme activity (ENZ+) ([2]; Table 5, modulator 0.4 weight percent in spore coating solution, H2O2 exposure 20 sec.): 100% | percentage of self-contained biological indicators positive for glucosidase enzyme activity (ENZ+) ([2]; Table 5, modulator 0.4 weight percent in spore coating solution, H2O2 exposure 30 sec.): 100% | percentage of self-contained biological indicators positive for glucosidase enzyme activity (ENZ+) ([2]; Table 5, modulator 0.4 weight percent in spore coating solution, H2O2 exposure 60 sec.): 0% | percentage of self-contained biological indicators positive for glucosidase enzyme activity (ENZ+) ([2]; Table 5, modulator 0.4 weight percent in spore coating solution, H2O2 exposure 90 sec.): 0% | percentage of self-contained biological indicators positive for glucosidase enzyme activity (ENZ+) ([2]; Table 5, modulator 0.4 weight percent in spore coating solution, H2O2 exposure 3 min.): 0% | percentage of self-contained biological indicators positive for glucosidase enzyme activity (ENZ+) ([2]; Table 5, modulator 0.4 weight percent in spore coating solution, H2O2 exposure 7 min.): 0% | percentage of self-contained biological indicators positive for glucosidase enzyme activity (ENZ+) ([2]; Table 5, modulator 0.8 weight percent in spore coating solution, H2O2 exposure 20 sec.): 100% | percentage of self-contained biological indicators positive for glucosidase enzyme activity (ENZ+) ([2]; Table 5, modulator 0.8 weight percent in spore coating solution, H2O2 exposure 30 sec.): 67% | percentage of self-contained biological indicators positive for glucosidase enzyme activity (ENZ+) ([2]; Table 5, modulator 0.8 weight percent in spore coating solution, H2O2 exposure 60 sec.): 0% | percentage of self-contained biological indicators positive for glucosidase enzyme activity (ENZ+) ([2]; Table 5, modulator 0.8 weight percent in spore coating solution, H2O2 exposure 90 sec.): 0% | percentage of self-contained biological indicators positive for glucosidase enzyme activity (ENZ+) ([2]; Table 5, modulator 0.8 weight percent in spore coating solution, H2O2 exposure 3 min.): 0% | percentage of self-contained biological indicators positive for glucosidase enzyme activity (ENZ+) ([2]; Table 5, modulator 0.8 weight percent in spore coating solution, H2O2 exposure 7 min.): 0%

Reference: US20210038753A1, “BIOLOGICAL STERILIZATION INDICATOR WITH STERILANT RESISTANCE MODULATOR” (3M INNOVATIVE PROPERTIES COMPANY, priority 2014, published 2021)
